Data reported in the NIST ThermoML archive (doi:10.1021/acs.jced.7b00106).
Numbers after ± are expanded uncertainties.

Conditions: Liquid, Hot wire method

FC(F)(F)/C=C/Cl [(E)-1-chloro-3,3,3-trifluoroprop-1-ene]
Conditions	thermal conductivity [W/m/K]
242.05 K, 36072 kPa	0.1119 ± 0.0047
242.06 K, 13440 kPa	0.1056 ± 0.0033
242.08 K, 7089 kPa	0.1037 ± 0.0036
242.09 K, 28062 kPa	0.1106 ± 0.0034
242.11 K, 583 kPa	0.101 ± 0.0031
242.13 K, 20421 kPa	0.1074 ± 0.0033
242.18 K, 13439 kPa	0.105 ± 0.0037
242.22 K, 7107 kPa	0.1031 ± 0.0039
242.24 K, 585 kPa	0.1007 ± 0.0034
242.32 K, 63843 kPa	0.1195 ± 0.0059
242.33 K, 53263 kPa	0.1172 ± 0.0038
242.34 K, 36064 kPa	0.112 ± 0.0034
242.34 K, 43841 kPa	0.1149 ± 0.0058
242.41 K, 28063 kPa	0.1093 ± 0.0053
242.45 K, 20418 kPa	0.1078 ± 0.0035
242.46 K, 53261 kPa	0.1167 ± 0.0052
242.46 K, 63839 kPa	0.1194 ± 0.0037
242.47 K, 43873 kPa	0.1147 ± 0.0066
242.49 K, 36067 kPa	0.1119 ± 0.0036
242.5 K, 13437 kPa	0.1053 ± 0.0032
242.54 K, 7100 kPa	0.1033 ± 0.005
242.55 K, 28067 kPa	0.11 ± 0.006
242.56 K, 597 kPa	0.101 ± 0.0031
242.59 K, 20435 kPa	0.1072 ± 0.0043
242.65 K, 13436 kPa	0.105 ± 0.0032
242.69 K, 7107 kPa	0.1029 ± 0.0039
242.76 K, 53251 kPa	0.1166 ± 0.0052
242.76 K, 63833 kPa	0.1199 ± 0.0037
242.79 K, 43839 kPa	0.115 ± 0.0038
242.81 K, 36066 kPa	0.1121 ± 0.0035
242.88 K, 28066 kPa	0.1102 ± 0.0039
242.91 K, 63824 kPa	0.1193 ± 0.004
242.93 K, 20434 kPa	0.1075 ± 0.0035
242.93 K, 53255 kPa	0.1164 ± 0.004
242.96 K, 43854 kPa	0.1143 ± 0.0049
242.98 K, 36047 kPa	0.1118 ± 0.0039
242.99 K, 13448 kPa	0.1056 ± 0.0034
243.04 K, 7102 kPa	0.1029 ± 0.0034
243.05 K, 28059 kPa	0.1096 ± 0.0045
243.08 K, 588 kPa	0.101 ± 0.0039
243.11 K, 20431 kPa	0.1071 ± 0.0034
243.18 K, 13440 kPa	0.105 ± 0.0034
243.22 K, 7112 kPa	0.1026 ± 0.0033
243.23 K, 63821 kPa	0.1197 ± 0.0037
243.26 K, 584 kPa	0.1004 ± 0.004
243.26 K, 53253 kPa	0.1164 ± 0.0036
243.29 K, 43835 kPa	0.1146 ± 0.0048
243.3 K, 36069 kPa	0.1121 ± 0.0037
243.4 K, 28075 kPa	0.1098 ± 0.0041
243.42 K, 63814 kPa	0.1191 ± 0.0039
243.44 K, 53247 kPa	0.1163 ± 0.0035
243.46 K, 20431 kPa	0.1074 ± 0.0034
243.49 K, 43850 kPa	0.114 ± 0.0039
243.51 K, 36041 kPa	0.1117 ± 0.0034
243.53 K, 13443 kPa	0.1053 ± 0.0061
243.58 K, 7097 kPa	0.103 ± 0.0032
243.6 K, 28066 kPa	0.1094 ± 0.0033
243.63 K, 586 kPa	0.1005 ± 0.004
243.66 K, 20425 kPa	0.107 ± 0.0036
243.74 K, 63809 kPa	0.1193 ± 0.0054
243.78 K, 53242 kPa	0.1168 ± 0.0036
243.8 K, 7115 kPa	0.1027 ± 0.0033
243.83 K, 43827 kPa	0.1143 ± 0.0056
243.85 K, 580 kPa	0.1001 ± 0.0042
243.85 K, 36062 kPa	0.1118 ± 0.0041
243.96 K, 28066 kPa	0.1097 ± 0.0033
243.96 K, 63804 kPa	0.119 ± 0.0036
244 K, 53243 kPa	0.1163 ± 0.0035
244.02 K, 20445 kPa	0.1073 ± 0.0048
244.06 K, 43851 kPa	0.1139 ± 0.0036
244.09 K, 36043 kPa	0.1116 ± 0.0034
244.19 K, 28067 kPa	0.1093 ± 0.0033
244.27 K, 20428 kPa	0.1068 ± 0.0039
261.5 K, 276 kPa	0.09433 ± 0.0029
261.52 K, 5038 kPa	0.09629 ± 0.0032
261.54 K, 10280 kPa	0.09846 ± 0.0035
261.55 K, 22296 kPa	0.1036 ± 0.011
261.56 K, 15956 kPa	0.1002 ± 0.0053
261.58 K, 270 kPa	0.09415 ± 0.0033
261.61 K, 5056 kPa	0.09622 ± 0.0046
261.63 K, 10283 kPa	0.09831 ± 0.0031
261.64 K, 22292 kPa	0.1023 ± 0.0031
261.65 K, 15950 kPa	0.1003 ± 0.005
261.91 K, 36411 kPa	0.1079 ± 0.0071
261.91 K, 42842 kPa	0.1093 ± 0.0037
261.93 K, 282 kPa	0.09438 ± 0.0029
261.93 K, 5041 kPa	0.09641 ± 0.0032
261.94 K, 29216 kPa	0.1051 ± 0.0033
261.95 K, 22290 kPa	0.103 ± 0.0069
261.96 K, 10273 kPa	0.09851 ± 0.0034
261.96 K, 15950 kPa	0.1005 ± 0.0037
261.97 K, 65297 kPa	0.1155 ± 0.0045
262 K, 59186 kPa	0.115 ± 0.0037
262.01 K, 36414 kPa	0.1074 ± 0.0045
262.01 K, 42847 kPa	0.1089 ± 0.0033
262.02 K, 51140 kPa	0.1116 ± 0.0034
262.04 K, 270 kPa	0.094 ± 0.0031
262.05 K, 29220 kPa	0.105 ± 0.0039
262.06 K, 5047 kPa	0.09593 ± 0.0039
262.06 K, 10278 kPa	0.09816 ± 0.0031
262.06 K, 22290 kPa	0.1024 ± 0.0031
262.06 K, 65280 kPa	0.115 ± 0.0064
262.08 K, 15930 kPa	0.1003 ± 0.0037
262.1 K, 59178 kPa	0.1128 ± 0.011
262.12 K, 51139 kPa	0.1114 ± 0.0044
262.33 K, 36413 kPa	0.1071 ± 0.0061
262.33 K, 42846 kPa	0.1091 ± 0.0036
262.37 K, 65275 kPa	0.1153 ± 0.0038
262.38 K, 29224 kPa	0.1054 ± 0.0032
262.4 K, 275 kPa	0.09425 ± 0.0035
262.4 K, 22288 kPa	0.1026 ± 0.0034
262.41 K, 59182 kPa	0.1141 ± 0.0087
262.42 K, 5040 kPa	0.09609 ± 0.004
262.42 K, 10267 kPa	0.09829 ± 0.0032
262.43 K, 51128 kPa	0.1115 ± 0.0034
262.44 K, 15943 kPa	0.1005 ± 0.0032
262.46 K, 42848 kPa	0.1091 ± 0.0033
262.47 K, 36410 kPa	0.107 ± 0.0047
262.5 K, 65252 kPa	0.115 ± 0.004
262.51 K, 29222 kPa	0.1049 ± 0.0045
262.53 K, 59166 kPa	0.1136 ± 0.0053
262.55 K, 22288 kPa	0.1025 ± 0.0031
262.56 K, 273 kPa	0.09391 ± 0.0032
262.56 K, 51133 kPa	0.1113 ± 0.0034
262.57 K, 5039 kPa	0.09583 ± 0.003
262.57 K, 10288 kPa	0.09813 ± 0.0035
262.57 K, 15931 kPa	0.09995 ± 0.003
262.8 K, 42854 kPa	0.1091 ± 0.0033
262.81 K, 36411 kPa	0.107 ± 0.0033
262.81 K, 65229 kPa	0.1152 ± 0.0046
262.86 K, 29224 kPa	0.105 ± 0.0039
262.86 K, 59156 kPa	0.1141 ± 0.0063
262.89 K, 51121 kPa	0.1116 ± 0.0034
262.9 K, 22284 kPa	0.1027 ± 0.0031
262.94 K, 280 kPa	0.094 ± 0.0032
262.94 K, 10264 kPa	0.09833 ± 0.0031
262.94 K, 15933 kPa	0.1003 ± 0.0034
262.95 K, 5058 kPa	0.09606 ± 0.0029
262.95 K, 42854 kPa	0.1089 ± 0.0033
262.96 K, 65209 kPa	0.115 ± 0.008
262.98 K, 36413 kPa	0.1068 ± 0.0032
263.01 K, 59151 kPa	0.1135 ± 0.0035
263.03 K, 29224 kPa	0.1045 ± 0.0032
263.05 K, 51114 kPa	0.1112 ± 0.0034
263.06 K, 22282 kPa	0.1023 ± 0.0031
